Here are results for three molecules from patent US8536226B2, “Methods for the treatment of dermatological disorders” (Janssen Pharmaceutica, NV, priority 2008, dated 2013).

Assay [1] has as its target T1, Melanocortin-5 (MC-5) receptor (Homo sapiens, UniProt P33032). Nature of the assay: MC-5 receptor binding assay, MDS-PANLABS (human recombinant HEK-293 cells, [125]NDP-α-MSH). Also noted: host or cells: HEK-293 cells. Here is the method: (§1) Binding to the MC-5 receptor was measured in two assays, performed by CEREP and MDS-PANLABS.
The assay run by MDS-PANLABS (Catalog Ref #251400) used human recombinant HEK-293 cells, ^[125]NDP-α-MSH as the ligand (0.035 nM), various concentrations of the compound of formula (I), incubating at 37° C. for 60 min, and detecting binding via scintillation counting. Specific ligand binding to the receptors was defined as the difference between the total binding and the nonspecific binding determined in the presence of an excess (3 μM) of unlabelled NDP-α-MSH. IC50 values were determined by a non-linear, least squares regression analysis using Data Analysis Toolbox. Inhibition constants (Ki) were calculated using the equation of Cheng and Prusoff (Biochem. Pharmacol. 22:3099, 1973) using the observed IC50 of the tested compound, the concentration of radioligand employed in the assay, and the historical values for the Kd of the ligand (obtained experimentally at MDS Pharma Services).
The compound of formula (I) was tested for binding to the MC-5 receptor in both the CEREP and MDS-PANLABS assays with results as listed in Table 3 below.

The target in assay [2] is T1, Melanocortin-5 (MC-5) receptor. Nature of the assay: MC-5 receptor binding assay, CEREP (human recombinant CHO cells, [125]NDP-α-MSH). Here is the method: as §1
The assay run by CEREP (Catalog Ref. #889-5h) used human recombinant CHO cells, ^[125]NDP-α-MSH as the ligand (0.05 nM concentration), NDP-α-MSH as the non-specific (1 μM), incubating at 37° C. for 60 min and detecting binding via scintillation counting. The specific ligand binding to the receptors was defined as the difference between the total binding and the nonspecific binding determined in the presence of an excess of unlabelled ligand. The IC50 values (the concentration causing a half-maximal inhibition of control specific binding) and Hill coefficients were determined by non-linear regression analysis of the competition curves generated with mean replicate values using Hill equation curve fitting (Y=D+[(A−D)/(1+(C/C50)^nH)], where Y=specific binding, D=minimum specific binding, A=maximum specific binding, C=compound concentration, C50=IC50, and nH=slope factor). This analysis was performed using software developed at CEREP (Hill software) and validated by comparison with data generated by the commercial software SigmaPlot® 4.0 for Windows® (© 1997 by SPSS Inc.). The inhibition constants (Ki) were calculated using the Cheng Prusoff equation (Ki=IC50/(1+(L/KD)), where L=concentration of radioligand in the assay, and KD=affinity of the radioligand for the receptor). […]

Assay [3] relates to human sebocytes. Nature of the assay: cells. Particulars: read-out: % Inhibition (Nile Red Fluorescence). It is filed as cell-based.
The subject of assay [4] is human sebocytes. Nature of the assay: cells. It is filed as cell-based.
Another assay deals with rabbit adipocytes. The following applies: read-out: EC50, lipolytic activity; cited from earlier work.
A further assay relates to rat adipocytes. Particulars: read-out: EC50, lipolytic activity; cited from earlier work.
Assay [5] concerns isolated human adipocytes. The following applies: concentrations as high as 1 μM; cited from earlier work.
Assay [6] concerns isolated non-human primate adipocytes. The following applies: concentrations as high as 1 μM; cited from earlier work.

Values joined by “and” are separate entries in the source; they are usually repeats but may differ in a detail not shown here. Equal entries are not always repeated. Where two headings read alike, the source gives them in different places.

T1 sequence (P33032 whole entry): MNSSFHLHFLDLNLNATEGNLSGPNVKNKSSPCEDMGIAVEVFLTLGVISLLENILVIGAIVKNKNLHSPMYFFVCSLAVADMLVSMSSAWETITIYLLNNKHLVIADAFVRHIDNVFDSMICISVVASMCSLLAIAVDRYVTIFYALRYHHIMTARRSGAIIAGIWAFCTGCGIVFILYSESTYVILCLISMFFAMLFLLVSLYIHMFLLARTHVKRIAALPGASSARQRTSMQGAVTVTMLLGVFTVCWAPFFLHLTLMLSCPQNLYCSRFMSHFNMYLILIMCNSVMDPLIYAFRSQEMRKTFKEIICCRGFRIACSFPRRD

Consider `COc1ccccc1N/C(=N\C(=S)Nc1ccccc1)c1ccccc1OC` [Compound (I), 1-[(2-methoxy-phenyl)-(2-methoxy-phenylamino)-methylene]-3-phenyl-thiourea], for which the IC50 – broadly, the concentration needed to halve the response being measured – in assay [1] (MDS-PANLABS MEAN ± SD) was 2350 ± 1670 nM; in assay [1] (MDS-PANLABS assay, HEK-293 cells, 0.035 nM radioligand, single runs), 1170 nM and 3530 nM; in assay [2] (CHO cells, 0.05 nM radioligand), 57 µM. In addition, the Ki (commonly a measure of affinity in units of concentration, obtained from inhibition or displacement) in assay [1] (MDS-PANLABS MEAN ± SD) was 2200 ± 1560 nM; in assay [1] (MDS-PANLABS assay, Cheng Prusoff, single runs), 1100 nM and 3310 nM; in assay [2] (Cheng Prusoff), 53 µM. For the same molecule, the inhibition (in general, the drop in the measured response relative to a control, in per cent) at 0.4 µM with human sebocytes [3] was determined as 24%; in the assay with human sebocytes [4] (read-out: % Inhibition of Sebaceous Lipid Synthesis, cholesterol esters, Study 2, @ 0.4 μM), 44%; in the assay with human sebocytes [4] (read-out: % Inhibition of Sebaceous Lipid Synthesis, squalene, Study 2, @ 0.4 μM), 64%; with human sebocytes [4] (read-out: % Inhibition of Sebaceous Lipid Synthesis, triglycerides, Study 2, @ 0.4 μM), 22%. Moreover, in the assay on human sebocytes [3], the inhibition at 0.6 µM stood at 25%. Further, the inhibition at 0.8 µM with human sebocytes [3] is 39%; with human sebocytes [4] (read-out: % Inhibition of Sebaceous Lipid Synthesis, cholesterol esters, Study 1, @ 0.8 μM), 30%; in the assay with human sebocytes [4] (read-out: % Inhibition of Sebaceous Lipid Synthesis, cholesterol esters, Study 2, @ 0.8 μM) it was 64%; in the assay with human sebocytes [4] (read-out: % Inhibition of Sebaceous Lipid Synthesis, squalene, Study 1, @ 0.8 μM) it was 50%; in the assay with human sebocytes [4] (read-out: % Inhibition of Sebaceous Lipid Synthesis, squalene, Study 2, @ 0.8 μM) it was 88%; in the assay on human sebocytes [4] (read-out: % Inhibition of Sebaceous Lipid Synthesis, triglycerides, Study 1, @ 0.8 μM) it was 0%. The inhibition at 0.8 µM with human sebocytes [4] (read-out: % Inhibition of Sebaceous Lipid Synthesis, triglycerides, Study 2, @ 0.8 μM) worked out at 20%. In addition, in the assay with human sebocytes [3], the inhibition at 1 µM is 45%. Besides, the inhibition at 1.2 µM in the assay on human sebocytes [3] was 43%; with human sebocytes [4] (read-out: % Inhibition of Sebaceous Lipid Synthesis, cholesterol esters, Study 1, @ 1.2 μM), 35%; in the assay on human sebocytes [4] (read-out: % Inhibition of Sebaceous Lipid Synthesis, cholesterol esters, Study 2, @ 1.2 μM) it was 72%; in the assay with human sebocytes [4] (read-out: % Inhibition of Sebaceous Lipid Synthesis, squalene, Study 1, @ 1.2 μM), 55%; in the assay on human sebocytes [4] (read-out: % Inhibition of Sebaceous Lipid Synthesis, squalene, Study 2, @ 1.2 μM), 92%; in the assay on human sebocytes [4] (read-out: % Inhibition of Sebaceous Lipid Synthesis, triglycerides, Study 1, @ 1.2 μM), 10%. The inhibition at 1.2 µM with human sebocytes [4] (read-out: % Inhibition of Sebaceous Lipid Synthesis, triglycerides, Study 2, @ 1.2 μM) amounted to 16%. The inhibition at 1.6 µM in the assay with human sebocytes [4] (read-out: % Inhibition of Sebaceous Lipid Synthesis, cholesterol esters, Study 1, @ 1.6 μM) is 45%; in the assay on human sebocytes [4] (read-out: % Inhibition of Sebaceous Lipid Synthesis, cholesterol esters, Study 2, @ 1.6 μM), 74%; with human sebocytes [4] (read-out: % Inhibition of Sebaceous Lipid Synthesis, squalene, Study 1, @ 1.6 μM), 62%; with human sebocytes [4] (read-out: % Inhibition of Sebaceous Lipid Synthesis, squalene, Study 2, @ 1.6 μM) it was 94%; in the assay with human sebocytes [4] (read-out: % Inhibition of Sebaceous Lipid Synthesis, triglycerides, Study 1, @ 1.6 μM), 8%; in the assay with human sebocytes [4] (read-out: % Inhibition of Sebaceous Lipid Synthesis, triglycerides, Study 2, @ 1.6 μM), 14%. The inhibition at 3.2 µM with human sebocytes [4] (read-out: % Inhibition of Sebaceous Lipid Synthesis, cholesterol esters, Study 1, @ 3.2 μM) is 60%; in the assay on human sebocytes [4] (read-out: % Inhibition of Sebaceous Lipid Synthesis, cholesterol esters, Study 2, @ 3.2 μM), 86%; in the assay on human sebocytes [4] (read-out: % Inhibition of Sebaceous Lipid Synthesis, squalene, Study 1, @ 3.2 μM), 76%; in the assay with human sebocytes [4] (read-out: % Inhibition of Sebaceous Lipid Synthesis, squalene, Study 2, @ 3.2 μM), 96%; in the assay with human sebocytes [4] (read-out: % Inhibition of Sebaceous Lipid Synthesis, triglycerides, Study 1, @ 3.2 μM), 2%; in the assay with human sebocytes [4] (read-out: % Inhibition of Sebaceous Lipid Synthesis, triglycerides, Study 2, @ 3.2 μM), 6%.

In the case of “ACTH: melanocortin neuropeptide arising from pro-opiomelanocortin (POMC) (SYSMEHFRWGKPVGKKRRPVKVYPNGAEDESAEAFPLEF; Corticotropin; UniProt P01189 138-176, looked up)”, the EC50 (usually the concentration needed to bring the measured effect to its halfway point) is 16.4 nM with rabbit adipocytes and 1.34 nM in the assay with rat adipocytes. The effect on lipolysis entry in assay [5] and in assay [6] was “very little effect” in each case.

For αMSH, the EC50 in the assay on rabbit adipocytes is 3.7 nM.
